“And” between values parts separate entries of the source, which are not always exact repeats. Equal entries are not always repeated. Where two headings read alike, the source gives them in different places.
How the values were obtained:
[1] = system: Human colon cancer HCT116 cells; experiment: Subcutaneous xenograft model of human colon cancer HCT-116 cells; format: in vivo, BALB/c nude mice; conditions: day 21 post-treatment, 5 mg/kg, IV, BIW×3W; for tumor volume: vehicle control 1146 mm^3
Method: Test Example 4. Pharmacodynamic Evaluation of Compound 2, Compound 250, and Compound 253 in a Subcutaneous Xenograft Model of Human Colon Cancer HCT-116 Cells in BALB/c Female Nude Mice
Human colon cancer HCT116 cells were cultured in vitro as monolayers in McCoys 5a medium supplemented with 10% fetal bovine serum and 1% penicillin/streptomycin/amphotericin B at 37 °C in a 5% CO2 incubator. Cells were routinely passaged twice a week using trypsin-EDTA digestion. When cells reached 80%-90% confluence and the required cell number was achieved, cells were harvested. HCT116 cells (0.1 mL, 5×10^6 cells) were subcutaneously inoculated into the right dorsal region near the upper forelimb of each mouse (BALB/c nude mice, female, 6-8 weeks old). Treatment was initiated when the average tumor volume reached approximately 158 mm^3. Tumor volume was measured twice weekly. At the end of the experiment, the tumor growth inhibition rate (TGI) was calculated as: TGI (%) = [1 - (average tumor volume at the end of treatment in a particular group - average tumor volume at the start of treatment in that group) / (average tumor volume at the end of treatment in the vehicle control group - average tumor volume at the start of treatment in the vehicle control group)] × 100%.
(§1) Experimental Groups and Dosing Regimen:
• 1, Vehicle control group • 2, Compound 2, 5 mg/kg, IV, BIW×3W • 3, Compound 250, 5 mg/kg, IV, BIW×3W • 4, Compound 253, 5 mg/kg, IV, BIW×3W

HCT116 cells = experiment: Inhibition of cell proliferation by CTG (CellTiter-Glo) luminescence assay; format: cell-based; conditions: Homo sapiens, read-out: HCT116, IC50
In short: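 Nine-point 1:3 dilutions applied to HCT116 cells (2 000/well, McCoy's 5a + 10 % FBS) for 72 h at 37 °C, final DMSO 0.25 %. Viability read by CellTiter-Glo luminescence; % inhibition versus DMSO controls fitted to four-parameter logistic for IC50.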

in vivo = conditions: male, CD-1, mouse
Method: Test Example 3. Pharmacokinetic Study for Determining Compound Concentrations in Mice by LC-MS/MS
Principle: LC-MS/MS is used to quantify the plasma concentrations of the test article at successive time points, generating an in-vivo pharmacokinetic profile.
Procedure: The test compound was dissolved in DMSO to prepare a 10 mg/mL stock solution. This stock was further diluted to 1 mg/mL with a vehicle consisting of 10 % DMSO + 10 % Solutol HS-15 + 80 % saline. Male CD-1 mice (JH Laboratory Animal Co., LTD) were employed; six animals were assigned per compound group. […] Serial blood samples (~50 µL whole blood, K2EDTA anticoagulant) were collected at 0.083, 0.25, 0.5, 1, 2, 4, 8 and 24 h (three mice per time point in a crossover design). Blood was centrifuged at 6 000 g for 5 min at 4 °C; plasma was harvested and stored at -70 °C until analysis. Plasma drug concentrations were determined by LC-MS/MS.
Calibration Curve and QC Preparation: Working solutions were prepared by dilution with MeOH:H2O (1:1). For each calibration or QC level, 3 µL of working solution was spiked into 57 µL of blank mouse plasma.
Sample Processing: To 30 µL of plasma was added 200 µL of methanol containing the internal standard (propranolol, 40 ng mL^-1). After vortex-mixing for 1 min, the mixture was centrifuged at 12 000 rpm for 10 min. A 100 µL aliquot of the supernatant was transferred to a clean plate for injection.
Pharmacokinetic Analysis: Concentration-time data were analyzed with WinNonlin 8.2 using a non-compartmental approach to derive PK parameters including Cmax, Tmax, AUC and terminal elimination half-life (t1/2). AUC was calculated by the linear-up/log-down trapezoidal method. Table 3. Pk parameters of compounds

[2] = system: Human colon cancer CR00090 cells; experiment: CR00090 human colon cancer model (subcutaneous); format: in vivo, NPSG mice; conditions: day 28 post-treatment, 5 mg/kg, IV, BIW×4W; for tumor volume: vehicle control 1093 mm^3
Method: Test Example 5: Pharmacodynamic Evaluation of Compound 117, Compound 250, and Compound 253 in the CR00090 Human Colon Cancer Model
Human colon cancer CR00090 cells were thawed, counted, and mixed with Matrigel at a 1:1 ratio. Then, 0.1 mL (5×10^5 cells) of CR00090 cells were subcutaneously inoculated into the right dorsal region near the upper forelimb of each mouse (NPSG mice, female, 6-8 weeks old). Treatment was initiated when the average tumor volume reached approximately 84 mm^3. Tumor volume was measured twice weekly. At the end of the experiment, the tumor growth inhibition rate (TGI) was calculated as: TGI (%) = [1 - (average tumor volume at the end of treatment in a particular group - average tumor volume at the start of treatment in that group) / (average tumor volume at the end of treatment in the vehicle control group - average tumor volume at the start of treatment in the vehicle control group)] × 100%.
as §1
• 1, Vehicle control group • 2, Compound 117, 5 mg/kg, IV, BIW×4W • 3, Compound 250, 5 mg/kg, IV, BIW×4W • 4, Compound 253, 5 mg/kg, IV, BIW×4W

topoisomerase I (Topo I) = biological target: T1, topoisomerase I (Topo I) (Homo sapiens, UniProt P11387); experiment: Topo I enzyme-inhibitory activity by agarose-gel electrophoresis (plasmid relaxation); format: biochemical
T1 sequence (P11387 1-765): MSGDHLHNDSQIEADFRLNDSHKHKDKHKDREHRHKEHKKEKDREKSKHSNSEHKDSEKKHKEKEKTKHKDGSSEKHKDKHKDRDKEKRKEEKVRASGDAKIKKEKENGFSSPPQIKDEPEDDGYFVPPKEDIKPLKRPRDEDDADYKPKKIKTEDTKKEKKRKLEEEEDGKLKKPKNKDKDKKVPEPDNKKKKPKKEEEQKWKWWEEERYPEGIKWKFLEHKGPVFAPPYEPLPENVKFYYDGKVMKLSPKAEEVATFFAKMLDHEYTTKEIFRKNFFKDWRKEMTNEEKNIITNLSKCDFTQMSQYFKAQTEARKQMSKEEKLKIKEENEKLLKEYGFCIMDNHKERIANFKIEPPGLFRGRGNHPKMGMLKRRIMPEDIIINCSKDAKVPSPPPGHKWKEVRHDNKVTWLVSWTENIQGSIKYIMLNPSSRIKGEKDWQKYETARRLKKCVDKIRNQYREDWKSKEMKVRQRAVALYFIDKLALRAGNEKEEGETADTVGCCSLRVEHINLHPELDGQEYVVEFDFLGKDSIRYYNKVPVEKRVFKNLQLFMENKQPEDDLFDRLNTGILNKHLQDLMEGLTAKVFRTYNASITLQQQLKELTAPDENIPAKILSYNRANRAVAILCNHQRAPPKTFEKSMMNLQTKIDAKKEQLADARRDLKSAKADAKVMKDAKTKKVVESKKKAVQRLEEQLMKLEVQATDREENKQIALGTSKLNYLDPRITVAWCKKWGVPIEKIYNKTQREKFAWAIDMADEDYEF
In short: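 Supercoiled pNO1 plasmid (0.5 µg) was relaxed by Topo I (0.75 U) in 20 mM Tris-HCl pH 7.5, 200 mM NaCl, 0.25 mM EDTA, 5 % glycerol, 5 % DMSO final, for 30 min at 37 °C. Supercoiled band intensity on agarose gel was normalized to no-enzyme and vehicle controls. IC50 from a four-parameter logistic fit.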

[3] = HCT-116, 72 h incubation, CellTiter-Glo
[4] = read-out: inhibition of topoisomerase I (Topo I) enzymatic activity, IC50; 0.75 U Topo I, pNO1 plasmid, 37 °C, 30 min; compounds listed by group (Group A / Group B)

CC[C@@]1(O)C(=O)OCc2c1cc1n(c2=O)Cc2c-1c(=O)c1cc(F)ccc1n2[C@@H]1CCN(C)C1 [Example 250, (S)-4-ethyl-8-fluoro-4-hydroxy-11-((R)-1-methylpyrrolidin-3-yl)-1,12-dihydro-14H-pyrano[3',4':6,7]indolizino[2,1-b] quinoline-3,6,14(4H,11H)-trione]
TGI [1]: 83.1% | tumor volume [1]: 326 mm^3 | IC50 (HCT116 cells; [3]): < 20 nM | bioavailability (in vivo): 35.9% | AUC(0-t) (in vivo; iv, 2 mg/kg): 543 ng·h/mL | Cmax (in vivo; iv, 2 mg/kg): 1210 ng/mL | clearance (in vivo; iv, 2 mg/kg): 62.9 mL/min/kg | half-life (in vivo; iv, 2 mg/kg): 17.9 min | AUC(0-t) (in vivo; po, 20 mg/kg): 1930 ng·h/mL | Cmax (in vivo; po, 20 mg/kg): 1120 ng/mL | Tmax (in vivo; po, 20 mg/kg): 30 min | half-life (in vivo; po, 20 mg/kg): 231 min | TGI [2]: 80.0% | tumor volume [2]: 286 mm^3

CC[C@@]1(O)C(=O)OCc2c1cc1n(c2=O)Cc2c-1c(=O)c1cc(F)ccc1n2[C@@H]1CCN(C2CCC2)C1 [Example 253, (S)-4-ethyl-8-fluoro-4-hydroxy-11-((R)-1-cyclobutylpyrrolidin-3-yl)-1,12-dihydro-14H-pyrano[3',4':6,7]indolizino[2,1-b]quinoline-3,6,14(4H,11H)-trione]
TGI [1]: 80.6% | tumor volume [1]: 351 mm^3 | IC50 (HCT116 cells; [3]): < 20 nM | TGI [2]: 76.3% | tumor volume [2]: 323 mm^3

CC[C@@]1(O)C(=O)OCc2c1cc1n(c2=O)Cc2c-1c(=O)c1cc(F)cc(CNC3CC3)c1n2C [Example 88, (S)-10-((cyclopropylamino)methyl)-4-ethyl-8-fluoro-4-hydroxy-11-methyl-1,12-dihydro-14H-pyrano[3,4:6,7]indolizino[2,1-b] quinoline-3,6,14(4H,11H)-trione]
IC50 (HCT116 cells; HCT-116, 72 h): < 20 nM | IC50 (topoisomerase I (Topo I); [4]): 200 to 500 nM

CC[C@@]1(O)C(=O)OCc2c1cc1n(c2=O)Cc2c-1c(=O)c1cc(F)ccc1n2CCN(C1CC1)C1CC(F)(F)C1 [Example 101, (S)-11-(2-(cyclopropyl(3,3-difluorocyclobutyl)amino)ethyl)-4-ethyl-8-fluoro-4-hydroxy-1,12-dihydro-14H-pyrano[3,4:6,7] indolizino[2,1-b]quinoline-3,6,14(4H,11H)-trione]
IC50 (HCT116 cells; HCT-116, 72 h): < 20 nM | IC50 (topoisomerase I (Topo I); [4]): 200 to 500 nM and < 200 nM

CC[C@@]1(O)C(=O)OCc2c1cc1n(c2=O)Cc2c-1c(=O)c1cc(F)c(C)cc1n2CCNC1CC(F)(F)C1 [Example 160]
IC50 (HCT116 cells; [3]): < 20 nM | IC50 (topoisomerase I (Topo I); 0.75 U Topo I, pNO1 plasmid, 37 °C, 30 min; compounds listed by group (Group A / Group B); read-out: inhibition of topoisomerase I (Topo I) enzymatic activity, IC50): 200 to 500 nM

CC[C@@]1(O)C(=O)OCc2c1cc1n(c2=O)Cc2c-1c(=O)c1cc(F)cnc1n2C [Example 19, (S)-7-ethyl-3-fluoro-7-hydroxy-14-methyl-10,14-dihydro-11H-pyrano[3',4':6,7]indolizino[2,1-b][1,8]diazepine-5,8,11(7H,13H)-trione]
IC50 (HCT116 cells; HCT-116, 72 h): < 20 nM | IC50 (topoisomerase I (Topo I); [4]): 200 to 500 nM

CC[C@@]1(O)C(=O)OCc2c1cc1n(c2=O)Cc2c-1c(=O)c1cc(F)ccc1n2CCN(C1CCC1)C1CCC1 [Example 119]
IC50 (HCT116 cells; HCT-116, 72 h): < 20 nM | IC50 (topoisomerase I (Topo I); [4]): 200 to 500 nM

From EP4778929A1, “NOVEL TYPE I TOPOISOMERASE INHIBITOR, AND PREPARATION METHOD THEREFOR AND USE THEREOF” (priority 2023, dated 2025)
